Assays:
[1] = pH of the resulting liquid (pH meter Mettler Toledo Seven Multi, USP<791>); settings: for pH trial 1 / pH trial 2: Table 2, 30 ml tap water, room temperature
Method: (§1) To evaluate dissolution, the components were weighed and put in centrifuge tubes containing 30 ml of tap water at room temperature. The tubes were gently stirred by hand (up and down movements) for 30 seconds to 1 minute. The dispersions were then assessed visually for turbidity and presence of particles in suspension or precipitate. pH was also assessed using pH meter Mettler Toledo Seven Multi and following USP<791>method.
(§2) Visual solubility tests were done in duplicate using 3 different calcium sources. The quantity of material was adjusted in order to maintain a consistent calcium content from each different salt.
The following trials were performed in order to assess visual solubility and pH levels of various formulations.

[2] = Visual solubility test: components mixed in 30 ml tap water, assessed visually for turbidity, particles in suspension or precipitate; settings: Table 2, calcium sources at consistent calcium content, room temperature, same observation for both trials
Method: Table 1 provides a description of the visual solubility tests performed using various components (including a commercial sample), with the quantities of each product weighed, and visual observations after the components were mixed in water.
as §1, §2
The following trials were performed in order to assess visual solubility and pH levels of various formulations. […] All lots were prepared by dry blending by hand of ingredients using spatula.

Compound	pH trial 1 [1]	pH trial 2 [1]	pH ([1]; Tables 3-5, calcium salt with dibasic and monobasic sodium phosphate in 30 ml water)	Observations [2]
O.O.[Ca+2].[Cl-].[Cl-] [Calcium Chloride dihydrate]	7.65	7.67	–	–
Calcium glycerophosphate	8.08	8.07	higher pH	–
CC(O)C(=O)[O-].O=C([O-])[C@H](O)[C@@H](O)[C@H](O)[C@H](O)CO.[Ca+2] [Calcium lactate gluconate]	7.73	7.74	–	sufficiently soluble
